Laboratory results from article PMC6204753, “Non-native autoinducer analogs capable of modulating the SdiA quorum sensing receptor in Salmonella enterica serovar Typhimurium” (Beilstein Journal of Organic Chemistry, 2018).

How the values were obtained:
Assay type in all cases: cell-based
SdiA [1] = biological target: T1, SdiA (Salmonella enterica subsp. enterica serovar Typhimurium, UniProt O66040); assay: S. Typhimurium-pJNS25 SdiA reporter, competitive antagonism against 10 nM L-OOHL; details: average ± STD, change in activity from 10 nM 2 (OOHL)
T1 sequence (O66040 entry or part of it): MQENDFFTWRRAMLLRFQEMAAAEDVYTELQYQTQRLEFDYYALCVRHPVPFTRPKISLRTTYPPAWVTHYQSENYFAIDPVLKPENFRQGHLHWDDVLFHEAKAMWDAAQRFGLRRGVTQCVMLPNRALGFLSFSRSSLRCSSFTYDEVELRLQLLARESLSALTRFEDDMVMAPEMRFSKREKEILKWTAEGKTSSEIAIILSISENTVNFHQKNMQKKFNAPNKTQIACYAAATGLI
Method in brief: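 S. Typhimurium-pJNS25 (native SdiA, srgE promoter–luxCDABE) subcultured 1:100 in LB and incubated 6 h at 37 °C, 200 rpm, with compound (1% DMSO); antagonism run against 10 nM L-OOHL. Luminescence normalised between 10 μM OOHL and 1% DMSO controls; triplicates; four-parameter dose–response fits.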

SdiA [2] = biological target: T1, SdiA; assay: Competition dose–response of OOHL (2) against antagonists in the S. Typhimurium SdiA reporter; details: no antagonist (0)
Experimental: We also submitted compounds 11, R8, and F45 to competition-type assays in the S. Typhimurium SdiA reporter to further characterize their activity profiles. […] The results are shown in Figure 5 (EC50 and maximal activity values listed in Supporting Information File 3).
(§1) Salmonella SdiA reporter assay. S. Typhimurium-pJNS25 was grown 16–18 h overnight in LB, diluted 1:100 in fresh LB medium, and then incubated for 6 h at 37 °C with shaking at 200 rpm in the presence of compounds (1% DMSO). For antagonism assays, OOHL (2) at its EC90 (10 nM, 0.1% DMSO) was added to the subculture immediately prior to adding the compound for testing. All compounds were screened at 100 μM and 1 μM in triplicate in agonism and antagonism assays. Raw luminescence values were divided by the OD600 and then normalized to the controls; negative (DMSO) and positive (10 μM OOHL) control samples were included in every assay plate and used to normalize assay results, setting the positive control to 100% and the negative control to 0%. Luminescence was measured using a Biotek Synergy 2 plate reader and Gen 5 software (version 1.05). Dose–response analyses were performed by preparing dilutions of compounds in DMSO and testing each concentration in the agonism or antagonism assays. Competition dose–response assays (data in Figure 5) were performed in the same manner as the antagonism assays, except instead of OOHL being added to the subculture, the antagonist being tested was added. Non-linear regression curve fits were generated using GraphPad Prism software (version 6) using variable slope (four parameter) dose–response analysis.

SdiA [3] = biological target: T1, SdiA; assay: S. Typhimurium-pJNS25 SdiA reporter, agonism (luminescence)
Description: Biological assays for SdiA activity. Cell-based reporter strains that rely on detecting the transcriptional activity of LuxR-type receptors are commonly used to assess the activity of exogenous ligands. We used the S. Typhimurium-pJNS25 reporter strain constructed by Smith and Ahmer and also used by Janssens et al. to examine SdiA activity. This strain naturally produces SdiA and contains a reporter plasmid with the promoter region for srgE fused to the luxABCDE operon of V. fischeri (see Experimental section for details of all strains and plasmids). SdiA activity is thus reported by the production of luciferase and resulting bioluminescence. We also prepared an SdiA reporter in E. coli (JLD271-pJN105SE-pSC11SE) to examine S. Typhimurium SdiA activity in an alternate background and with a different reporter gene output. […] This reporter construct uses an arabinose inducible promoter to produce S. Typhimurium SdiA and the promoter region for srgE fused to lacZ to report SdiA activity. SdiA activity is then measured using standard β-galactosidase assays. In both reporter strains, signal was normalized to the difference between the positive control (10 μM OOHL) and the negative control (1% DMSO; no compound).
Salmonella SdiA reporter assay. S. Typhimurium-pJNS25 was grown 16–18 h overnight in LB, diluted 1:100 in fresh LB medium, and then incubated for 6 h at 37 °C with shaking at 200 rpm in the presence of compounds (1% DMSO). […] All compounds were screened at 100 μM and 1 μM in triplicate in agonism and antagonism assays. […] Dose–response analyses were performed by preparing dilutions of compounds in DMSO and testing each concentration in the agonism or antagonism assays. Competition dose–response assays (data in Figure 5) were performed in the same manner as the antagonism assays, except instead of OOHL being added to the subculture, the antagonist being tested was added. Non-linear regression curve fits were generated using GraphPad Prism software (version 6) using variable slope (four parameter) dose–response analysis.

S. Typhimurium SdiA = S. Typhimurium SdiA (Salmonella enterica subsp. enterica serovar Typhimurium, UniProt O66040); assay: E. coli JLD271-pJN105SE-pSC11SE SdiA reporter, agonism
S. Typhimurium SdiA, sequence (O66040 entry or part of it): as above
Description: Biological assays for SdiA activity. Cell-based reporter strains that rely on detecting the transcriptional activity of LuxR-type receptors are commonly used to assess the activity of exogenous ligands. We used the S. Typhimurium-pJNS25 reporter strain constructed by Smith and Ahmer and also used by Janssens et al. to examine SdiA activity. This strain naturally produces SdiA and contains a reporter plasmid with the promoter region for srgE fused to the luxABCDE operon of V. fischeri (see Experimental section for details of all strains and plasmids). SdiA activity is thus reported by the production of luciferase and resulting bioluminescence. We also prepared an SdiA reporter in E. coli (JLD271-pJN105SE-pSC11SE) to examine S. Typhimurium SdiA activity in an alternate background and with a different reporter gene output. E. coli JLD271 is the sdiA mutant of K-12 E. coli. […] SdiA activity is then measured using standard β-galactosidase assays. […]
E. coli SdiA reporter assay. […] A 50 μL aliquot of culture from each well was lysed in 200 μL of Z-buffer and 8 μL of chloroform, and a 100 μL aliquot of this lysate was incubated with 25 μL of 4 mg/mL ONPG for 20 min at 30 °C before reading absorption at 420 nm and 550 nm using a Biotek Synergy 2 plate reader. […]

S. Typhimurium-pJNS25 = details: 100 μM compound; footnote f: Cell growth inhibited at this compound concentration
Experimental: as §1

| Compound | inhibition at 1 µM (SdiA [1]; 1 μM compound, read-out: Antagonism 1 μM Inhibition (%)) [%] | inhibition at 100 µM (SdiA [1]; 100 μM compound, read-out: Antagonism 100 μM Inhibition (%)) [%] | EC50 (SdiA [2]) [nM] | EC90 (SdiA [3]; S. Typhimurium reporter) [nM] | EC50 (SdiA [3]; agonism dose–response, read-out: EC50) [nM] | Emax (SdiA [3]; maximal activity (efficacy) from agonism dose–response, 10 μM OOHL = 100%, DMSO = 0%, read-out: activation (%)) [%] | EC50 (S. Typhimurium SdiA) [nM] | Antagonism 1 μM Inhibition (%) (SdiA [1]; 1 μM compound) | cell growth (S. Typhimurium-pJNS25) |
| --- | --- | --- | --- | --- | --- | --- | --- | --- | --- |
| CCCCCC(=O)CC(=O)N[C@H]1CCOC1=O [compound 2, reference compound] | -2 ± 9 | 9 ± 5 | 1.03 | 10 | 1.03 | 110 | 1.5 |  |  |
| O=C1C=C(Br)C(=CBr)O1 [compound 21, reference compound] |  |  |  |  |  |  |  | 29 ± 13 | --f |
